Measured values as given in US20250114369A1, “COMPOUNDS AND METHODS FOR TREATMENT OF VIRAL INFECTIONS” (Gilead Sciences, Inc., priority 2023, published 2025).

Assays:
in vitro [1] = format: in vitro ADME; settings: human, s9, pH 7.4
Experimental: Duplicate aliquots of test compound or positive control substrate (GS-7340) were added to S9 stock diluted with 100 mM potassium phosphate buffer, pH 7.4, to obtain a protein concentration of 2.4 mg/mL. The S9 metabolic reactions were initiated by the addition of the substrates to the S9 reaction mixture to a final concentration of 2 μM. At 2, 12, 25, 45, 65 and 90 min, 25 μL aliquots of the reaction mixture were transferred to plates containing 225 μl of IS/Q solution. After quenching, the plates were centrifuged at 3000×g for 30 minutes, and 150 μL aliquots of each supernatant were diluted with 150 μL water. Aliquots (10 μL) of the diluted supernatant were analyzed on a Thermo Q-Exactive mass spectrometer as described below. Quantification of test compounds and controls was performed by analyte/internal standard peak area ratio (PAR) values measured on a Thermo Q-Exactive mass spectrometer coupled to a Dionex UltiMate 3000 HPLC with a Leap Technologies HTC PAL autosampler. The column used was a Thermo Hypersil GOLD (1.9 μm particle size, 2.1×50 mm). Mobile phase A consisted of […] formic acid in water. Mobile phase B consisted of 0.1% (v/v) formic acid in acetonitrile. Elution of analytes was achieved by a series of linear gradients of acetonitrile in water containing 0.1% (v/v) formic acid. The mass spectrometer was calibrated on a weekly basis and mass tolerance of 5 ppm was used.

[2] = system: Caco-2 cells (clone C2BBel); assay: CACO-2 permeability; format: in vitro ADME; settings: donor pH 6.5, receiver pH 7.4; for DM Caco2 A to B: forward (A to B); for DM Caco2 B to A: reverse (B to A)
Experimental: Pre-plated Caco-2 cells (clone C2BBel) were obtained from Sigma-Aldrich, Inc. (Atlanta, GA). Cell monolayers were grown to confluence on collagen-coated, microporous, polycarbonate membranes in 24-well transwell plates for 21 days. The permeability assay buffer in donor wells was Hanks' balanced salt solution (HBSS) containing 10 mM HEPES and 15 mM glucose at a pH of 6.5 containing 200 μM BNPP. The receiver wells used HBSS buffer containing 10 mM HEPES and 15 mM glucose at a pH of 7.4 and supplemented with 1% BSA. After an initial equilibration with transport buffer, TEER values were read to test membrane integrity. The experiment was started by the addition of buffers containing test compounds, 200 μl and 1000 μl in the apical and basolateral chamber, respectively. At 0- and 2-hour post dose, 10 μL was sampled from donor compartment and was immediately diluted in 190 μL of 20% methanol. At 1 and 2 hours post dose, 100 μl of solution was taken from the receiver compartments and was immediately diluted in 100 μl of 20% methanol. Removed buffer was replaced with fresh buffer and a correction was applied to all calculations for the removed material. Each compound was tested in 2 separate replicate wells for each condition. All samples were then extracted with 400 μl 100% acetonitrile with internal standard to precipitate protein. Cells were dosed on the apical or basolateral side to determine forward (A to B) and reverse (B to A) permeability. To test for non-specific binding and compound instability, the total amount of drug was quantitated at the end of the experiment and compared to the material present in the original dosing solution as a percent recovery. Formation of the parent compound (GS-441524; Reference Compound A) was monitored in assay wells dosed with the prodrug. Samples were analyzed by LC-MS/MS.

[3] = system: SARS Coronavirus 2 recombinant with NanoLuc (SARS-CoV2-NLuc); assay: organism not typed; format: cell-based; settings: 48 h
in vitro [4] = format: in vitro ADME; settings: human, s9, pH 7.4; remark: listed apart in the source
Experimental: Duplicate aliquots of test compound or positive control substrate (GS-7340) were added to PMSF-free Intestinal S9 fractions diluted with 100 mM phosphate buffered saline, pH 7.4, to obtain a protein concentration of 1.0 mg/mL. The S9 metabolic reactions were initiated by the addition of the substrates to the S9 reaction mixture to a final concentration of 2 μM. At 0, 10, 20, 30, 60 and 120 min, 25 μL aliquots of the reaction mixture were transferred to plates containing 225 μl of IS/Q solution. After quenching, the plates were centrifuged at 3000×g for 30 minutes, and 150 μL aliquots of each supernatant were diluted with 150 μL water. Aliquots (10 μL) of the diluted supernatant were analyzed on a Thermo Q-Exactive mass spectrometer as described below. Quantification of test compounds and controls was performed by analyte/internal standard peak area ratio (PAR) values measured on a Thermo Q-Exactive mass spectrometer coupled to a Dionex UltiMate 3000 HPLC with a Leap Technologies HTC PAL autosampler. The column used was a Thermo Hypersil GOLD (1.9 μm particle size, 2.1×50 mm). Mobile phase A consisted of […] formic acid in water. Mobile phase B consisted of 0.1% (v/v) formic acid in acetonitrile. Elution of analytes was achieved by a series of linear gradients of acetonitrile in water containing 0.1% (v/v) formic acid. The mass spectrometer was calibrated on a weekly basis and mass tolerance of 5 ppm was used.

[5] = system: Respiratory syncytial virus recombinant with luciferase (RSV-Luc5); assay: microbe, parasite or virus in culture; format: cell-based; settings: human respiratory syncytial virus, NHBE, 72 h, read-out: RSV NHBE EC50 (nM)
[6] = format: in vitro ADME; settings: 2 μM
Experimental: Duplicate aliquots of plasma were warmed to 37° C. and the metabolic reactions initiated by the addition of test compound (6 μL of 0.1 mM DMSO stock) or plasma stability standard (GS-7340) to obtain a final substrate concentration of 2 μM. At 0.05, 0.5, 1, 2, 3 and 4 hr, 25 μL aliquots of the reaction mixture were transferred to plates containing 225 μl of IS/Q quenching solution. After quenching, the plates were centrifuged at 3000×g for 30 minutes, and 150 μL supernatant was diluted with 150 μL water. Aliquots (10 μL) of the diluted supernatant were analyzed on a Thermo Q-Exactive mass spectrometer as described below. Quantification of test compounds and controls was performed by analyte/internal standard peak area ratio (PAR) values measured on a Thermo Q-Exactive mass spectrometer coupled to a Dionex UltiMate 3000 HPLC with a Leap Technologies HTC PAL autosampler. The column used was a Thermo Hypersil GOLD (1.9 μm particle size, 2.1×50 mm). Mobile phase A consisted of […] formic acid in water. Mobile phase B consisted of 0.1% (v/v) formic acid in acetonitrile. Elution of analytes was achieved by a series of linear gradients of acetonitrile in water containing 0.1% (v/v) formic acid. The mass spectrometer was calibrated on a weekly basis and mass tolerance of 5 ppm was used.

in vitro [7] = format: cell-based; settings: human
Experimental: Cytotoxicity of the compounds was determined in uninfected cells using the cell viability reagent in a similar fashion as described before for other cell types (Cihlar et al., Antimicrob Agents Chemother. 2008, 52(2):655-65). HEp-2 (1.5×10^3 cells/well) and MT-4 (2×10^3 cells/well) cells were plated in 384-well plates and incubated with the appropriate medium containing 3-fold serially diluted compound ranging from 15 nM to 100,000 nM. Cells were cultured for 4-5 days at 37° C. Following the incubation, the cells were allowed to equilibrate to 25° C., and cell viability was determined by adding Cell-Titer Glo viability reagent. The mixture was incubated for 10 min, and the luminescence signal was quantified using an Envision plate reader. Untreated cell and cells treated at 2 μM puromycin (Sigma, St. Louis, MO) serve as […] cell viability control, respectively. The percent of cell viability was calculated for each tested compound concentration relative to the 0% and 100% controls and the CC50 value was determined by non-linear regression as a compound concentration reducing the cell viability by […].
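For CC50 in this document: uninfected MT-4 cells over 4-5 days by CellTiter-Glo.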

Compound | half-life at 2 μM (in vitro [1]) | DM Caco2 A to B [2] | DM Caco2 B to A [2] | EC50 [3] | half-life at 2 μM (in vitro [4]) | EC50 [5] | STA Human Plasma 37 [6] | CC50 (in vitro [7])
COC(=O)[C@H]1COC(=O)N1C(=O)OC[C@H]1O[C@@](C#N)(c2ccc3c(N)ncnn23)[C@H](O)[C@@H]1O [Compound 5, O3-[[(2R,3S,4R,5R)-5-(4-aminopyrrolo[2,1-f][1,2,4]triazin-7-yl)-5-cyano-3,4-dihydroxy-tetrahydrofuran-2-yl]methyl]04-methyl (4R)-2-oxooxazolidine-3,4-dicarboxylate] | 256 min | 0.04 | 0.08 | 20.4 µM | 83.4 min | 20100 nM | 77.22 | > 50 µM
CC(C)OC(=O)[C@@H](NC(=O)OC[C@H]1O[C@@](C#N)(c2ccc3c(N)ncnn23)[C@H](O)[C@@H]1O)C(C)C [Compound 7, isopropyl-((((2R,3S,4R,5R)-5-(4-aminopyrrolo[2,1-f][1,2,4]triazin-7-yl)-5-cyano-3,4-dihydroxytetrahydrofuran-2-yl)methoxy)carbonyl)-L-valinate] | ≥ 592 min | 0.115 | 6.245 | > 50 µM | ≥ 792 min | > 50000 nM | 1303.4 | > 50 µM
N#C[C@@]1(c2ccc3c(N)ncnn23)O[C@H](COC(=O)N2CCCCCCC2)[C@@H](O)[C@H]1O [Compound 9, [(2R,3S,4R,5R)-5-(4-aminopyrrolo[2,1-f][1,2,4]triazin-7-yl)-5-cyano-3,4-dihydroxy-tetrahydrofuran-2-yl]methyl azocane-1-carboxylate] | 526 min | 0.47 | 6.67 | > 50 µM | 400 min | 10300 nM | 1584 | > 50 µM
CCOC(=O)c1cccn1C(=O)OC[C@H]1O[C@@](C#N)(c2ccc3c(N)ncnn23)[C@H](O)[C@@H]1O [Compound 10, O1-[[(2R,3S,4R,5R)-5-(4-aminopyrrolo[2,1-f][1,2,4]triazin-7-yl)-5-cyano-3,4-dihydroxy-tetrahydrofuran-2-yl]methyl]O2-ethyl pyrrole-1,2-dicarboxylate] | 4.6 min | 0.22 | 5.54 | 5.16 µM | 1.71 min | 1520 nM | 68.966 | > 50 µM
CCCSC(=O)OC[C@H]1O[C@@](C#N)(c2ccc3c(N)ncnn23)[C@H](OC(C)=O)[C@@H]1OC(C)=O [Compound 22, [(2R,3R,4R,5R)-4-acetoxy-5-(4-aminopyrrolo[2,1-f][1,2,4]triazin-7-yl)-5-cyano-2-(propylsulfanylcarbonyloxymethyl)tetrahydrofuran-3-yl]acetate] | ≤ 2 min |  |  | 9.83 µM | 1.59 min | 3320 nM |  | > 50 µM
CCSC(=O)OC[C@H]1O[C@@](C#N)(c2ccc3c(N)ncnn23)[C@H](OC(C)=O)[C@@H]1OC(C)=O [Compound 23, [(2R,3R,4R,5R)-4-acetoxy-5-(4-aminopyrrolo[2,1-f][1,2,4]triazin-7-yl)-5-cyano-2-(ethylsulfanylcarbonyloxymethyl)tetrahydrofuran-3-yl]acetate] | ≤ 2 min |  |  | 12.4 µM | 0.885 min | 3810 nM |  | > 50 µM
CC(=O)O[C@H]1[C@@H](OC(C)=O)[C@](C#N)(c2ccc3c(N)ncnn23)O[C@@H]1COC(=O)SC(C)(C)C [Compound 24, [(2R,3R,4R,5R)-4-acetoxy-5-(4-aminopyrrolo[2,1-f][1,2,4]triazin-7-yl)-2-(tert-butylsulfanylcarbonyloxymethyl)-5-cyano-tetrahydrofuran-3-yl]acetate] | ≤ 2 min |  |  | > 50 µM | 0.921 min | 19400 nM |  | > 50 µM
CC(=O)O[C@H]1[C@@H](OC(C)=O)[C@](C#N)(c2ccc3c(N)ncnn23)O[C@@H]1COC(=O)SC1CCCC1 [Compound 25, [(2R,3R,4R,5R)-4-acetoxy-5-(4-aminopyrrolo[2,1-f][1,2,4]triazin-7-yl)-5-cyano-2-(cyclopentylsulfanylcarbonyloxymethyl)tetrahydrofuran-3-yl]acetate] | ≤ 2 min |  |  | 4.02 µM | 1.14 min | 1250 nM | 72.169 | 32.5 µM
